Source: patent US9845340B2, “Peptides that specifically bind HGF receptor (cMet) and uses thereof” (Dyax Corp., priority 2003, dated 2017)

Legend:
cMet-Fc fusion protein = cMet-Fc fusion protein (Homo sapiens, UniProt P08581); experiment: Protein phage ELISA: peptide-displaying phage binding to soluble cMet-Fc versus TRAIL-Fc; conditions: phage isolate; cMet-Fc vs. TRAIL-Fc
Outline: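 Plates coated with 0.5 μg/mL cMet-Fc or, as background, TRAIL-Fc, then blocked with 3% BSA in PBST. Peptide-displaying phage bound 2 h at room temperature. Detection with HRP-anti-M13 antibody.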

[1] = target: T1, 3T3 cells that over-express human cMet (Homo sapiens, UniProt P08581); experiment: Whole cell ELISA of peptide-displaying phage; type: cell-based; conditions: phage isolate; 3T3 cells expressing human cMet vs. non-expressing 3T3 cells
T1 construct: expressed in transfected cells; host or cells: 3T3 cells
Outline: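 3T3 cells over-expressing human cMet seeded 10^5/well, pelleted and fixed with 0.1% glutaraldehyde 12 min at 37 °C. Blocked peptide-displaying phage bound 1 h at room temperature; after PBST wash, bound phage detected with HRP-conjugated anti-M13 antibody.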

SK-LMS-1 cells = experiment: Cellular proliferation assay (HGF-stimulated, BrdU incorporation); type: cell-based; conditions: peptide 10 μM, HGF 50 ng/mL or 100 ng/mL, FIG. 10
Description: Cellular proliferation assays were performed to identify cMet-binding peptides that antagonize HGF-stimulated proliferation. These in vitro studies utilized a leomyosarcoma cell line, SK-LMS-1, in which cells proliferate in response to HGF. SK-LMS-1 cells were seeded on 96-well plates at a density of 2000 cells/well. After a 24 hour incubation at 37 C, the cells were starved in culture media containing 0.1% BSA instead of 10% fetal bovine serum for 36 hours at 37 C. Fresh starvation media with or without a cMet-binding peptide (10 μM) was added to the respective wells and the cells were incubated for 2 hours at 37 C. […] HGF was then added at a concentration of either 50 ng/mL or 100 ng/mL and the cells were incubated for an additional 12 hours at 37 C. Proliferation was assessed by measuring the incorporation of BrdU (Calbiochem, San Diego, Calif.) as described by the manufacturer. Results are shown for SEQ ID NO:365 (FIG. 10).

[2] = target: T2, cMet-Fc fusion protein (or similar target) (Mus musculus, UniProt P16056); experiment: Fluorescence anisotropy / polarization direct binding, mouse cMet; set-up: key: NB = no binding; conditions: fluorescein-labeled peptide
T2 construct: Fc
Description: Fluorescence anisotropy measurements were performed in 384-well microplates in a volume of 10 μL in binding buffer (PBS, 0.01% Tween-20, pH 7.5) using a Tecan Polarion fluorescence polarization plate reader ([…]). The concentration of fluorescein-labeled peptide was held constant (20 nM) and the concentration of cMet-Fc fusion protein (or similar target) was varied. Binding mixtures were equilibrated for 10 minutes in the microplate at 30 C before measurement. The observed change in anisotropy was fit to the equation below via nonlinear regression to obtain the apparent KD. This equation (1) assumes that the synthetic peptide and cMet form a reversible complex in solution with 1:1 stoichiometry.
[formula] where robs is the observed anisotropy, rfree is the anisotropy of the free peptide, rbound is the anisotropy of the bound peptide, KD is the apparent dissociation constant, cMet is the total cMet concentration, and P is the total fluorescein-labeled peptide concentration. KD was calculated in a direct binding assay (KD,B) and therefore these values represent cMet binding to the fluorescein labeled peptide.

Sequence of cMet-Fc fusion protein (P08581 25-307 limits assumed): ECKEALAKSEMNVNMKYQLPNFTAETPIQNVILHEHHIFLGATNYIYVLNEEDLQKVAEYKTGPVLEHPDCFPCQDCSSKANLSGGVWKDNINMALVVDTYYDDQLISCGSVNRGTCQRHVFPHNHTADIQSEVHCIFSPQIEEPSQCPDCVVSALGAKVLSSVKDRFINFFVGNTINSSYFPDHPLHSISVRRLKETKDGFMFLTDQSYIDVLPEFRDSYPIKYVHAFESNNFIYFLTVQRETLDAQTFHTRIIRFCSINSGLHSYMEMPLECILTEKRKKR
Sequence of cMet-Fc fusion protein (P08581 with tags, fused parts or gaps limits assumed): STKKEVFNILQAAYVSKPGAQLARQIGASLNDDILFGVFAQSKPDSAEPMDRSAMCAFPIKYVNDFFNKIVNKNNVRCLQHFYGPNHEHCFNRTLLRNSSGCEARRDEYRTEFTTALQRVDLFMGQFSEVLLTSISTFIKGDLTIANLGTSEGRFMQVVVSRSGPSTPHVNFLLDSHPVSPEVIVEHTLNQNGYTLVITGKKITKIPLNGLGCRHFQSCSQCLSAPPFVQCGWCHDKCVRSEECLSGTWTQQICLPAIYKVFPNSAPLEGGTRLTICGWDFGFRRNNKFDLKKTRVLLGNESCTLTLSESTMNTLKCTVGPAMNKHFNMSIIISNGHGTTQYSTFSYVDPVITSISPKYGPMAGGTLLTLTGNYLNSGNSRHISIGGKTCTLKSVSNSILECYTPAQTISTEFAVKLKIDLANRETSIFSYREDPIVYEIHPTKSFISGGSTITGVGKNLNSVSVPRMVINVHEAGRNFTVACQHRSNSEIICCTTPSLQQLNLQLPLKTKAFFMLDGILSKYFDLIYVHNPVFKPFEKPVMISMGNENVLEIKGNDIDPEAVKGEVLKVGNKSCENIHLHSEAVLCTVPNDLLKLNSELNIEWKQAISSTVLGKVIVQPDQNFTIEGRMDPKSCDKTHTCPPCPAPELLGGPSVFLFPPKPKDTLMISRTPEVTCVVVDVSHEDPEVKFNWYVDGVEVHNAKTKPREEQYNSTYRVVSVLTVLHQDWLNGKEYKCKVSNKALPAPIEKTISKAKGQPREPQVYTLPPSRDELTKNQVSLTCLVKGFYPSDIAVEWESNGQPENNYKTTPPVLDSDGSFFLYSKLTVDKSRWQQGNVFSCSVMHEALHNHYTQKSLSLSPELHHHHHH
T1 sequence (P08581 25-1390): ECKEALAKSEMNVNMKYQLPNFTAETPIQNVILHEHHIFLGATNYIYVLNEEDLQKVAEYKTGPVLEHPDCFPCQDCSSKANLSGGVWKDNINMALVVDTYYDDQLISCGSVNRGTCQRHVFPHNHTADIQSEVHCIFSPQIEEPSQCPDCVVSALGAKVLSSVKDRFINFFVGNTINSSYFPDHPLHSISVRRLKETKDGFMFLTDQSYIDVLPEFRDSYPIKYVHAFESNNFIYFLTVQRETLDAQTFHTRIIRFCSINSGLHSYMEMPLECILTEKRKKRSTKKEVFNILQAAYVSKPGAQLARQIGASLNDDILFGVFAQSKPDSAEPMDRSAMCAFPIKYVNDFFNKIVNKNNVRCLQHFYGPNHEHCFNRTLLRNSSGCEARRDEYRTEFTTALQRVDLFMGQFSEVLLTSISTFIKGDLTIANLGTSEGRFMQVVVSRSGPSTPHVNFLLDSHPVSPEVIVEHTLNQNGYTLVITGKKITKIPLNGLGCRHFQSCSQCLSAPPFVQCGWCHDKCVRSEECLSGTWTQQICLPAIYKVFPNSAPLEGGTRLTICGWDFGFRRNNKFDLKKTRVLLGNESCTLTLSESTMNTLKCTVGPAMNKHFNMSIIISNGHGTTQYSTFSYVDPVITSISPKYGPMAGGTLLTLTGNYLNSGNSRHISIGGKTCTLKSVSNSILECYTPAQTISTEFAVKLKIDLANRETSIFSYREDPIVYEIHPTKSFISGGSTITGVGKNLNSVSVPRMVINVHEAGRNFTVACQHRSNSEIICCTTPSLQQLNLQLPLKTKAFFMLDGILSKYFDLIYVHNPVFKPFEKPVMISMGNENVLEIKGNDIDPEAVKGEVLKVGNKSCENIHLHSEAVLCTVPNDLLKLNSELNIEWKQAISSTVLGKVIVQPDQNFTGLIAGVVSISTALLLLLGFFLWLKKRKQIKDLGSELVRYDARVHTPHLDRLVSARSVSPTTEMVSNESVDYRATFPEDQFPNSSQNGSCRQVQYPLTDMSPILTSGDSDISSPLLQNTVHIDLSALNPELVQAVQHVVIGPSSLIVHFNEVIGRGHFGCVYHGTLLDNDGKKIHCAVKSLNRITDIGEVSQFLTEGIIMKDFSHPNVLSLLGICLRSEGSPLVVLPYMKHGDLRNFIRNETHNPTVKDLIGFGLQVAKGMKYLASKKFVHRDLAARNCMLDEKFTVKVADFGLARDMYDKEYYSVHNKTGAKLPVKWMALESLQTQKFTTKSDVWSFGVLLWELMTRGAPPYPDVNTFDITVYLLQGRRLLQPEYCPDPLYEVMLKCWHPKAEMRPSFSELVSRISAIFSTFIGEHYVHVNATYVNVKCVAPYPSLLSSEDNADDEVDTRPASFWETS
T2 sequence (P16056 25-306 limits assumed): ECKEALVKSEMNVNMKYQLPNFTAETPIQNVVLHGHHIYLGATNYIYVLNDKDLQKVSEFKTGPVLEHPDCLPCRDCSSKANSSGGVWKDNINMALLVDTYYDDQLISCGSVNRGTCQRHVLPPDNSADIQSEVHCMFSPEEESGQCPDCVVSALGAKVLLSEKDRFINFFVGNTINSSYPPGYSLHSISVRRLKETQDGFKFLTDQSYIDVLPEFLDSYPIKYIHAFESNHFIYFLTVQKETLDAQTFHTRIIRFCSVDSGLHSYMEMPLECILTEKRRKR
T2 sequence (P16056 307-929 limits assumed): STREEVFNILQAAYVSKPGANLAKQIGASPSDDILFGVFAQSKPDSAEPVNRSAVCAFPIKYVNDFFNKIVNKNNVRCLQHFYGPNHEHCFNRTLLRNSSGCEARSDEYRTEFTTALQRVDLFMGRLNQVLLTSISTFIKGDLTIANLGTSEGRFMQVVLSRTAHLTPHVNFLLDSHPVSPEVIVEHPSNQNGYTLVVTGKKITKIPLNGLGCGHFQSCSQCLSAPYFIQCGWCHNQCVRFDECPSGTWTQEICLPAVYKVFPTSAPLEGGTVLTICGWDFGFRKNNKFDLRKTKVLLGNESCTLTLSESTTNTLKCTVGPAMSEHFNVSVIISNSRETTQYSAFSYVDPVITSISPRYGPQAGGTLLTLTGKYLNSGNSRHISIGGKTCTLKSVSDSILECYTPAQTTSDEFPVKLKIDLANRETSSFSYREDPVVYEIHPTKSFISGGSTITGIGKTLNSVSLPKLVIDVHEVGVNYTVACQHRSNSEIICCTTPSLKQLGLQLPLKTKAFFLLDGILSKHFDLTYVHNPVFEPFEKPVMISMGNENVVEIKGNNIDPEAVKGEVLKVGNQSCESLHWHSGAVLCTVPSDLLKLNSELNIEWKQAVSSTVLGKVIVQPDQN

Protein ELISA (cMet-Fc fusion protein) [fold over background] | WC ELISA [1] [fold over background] | Kd (mouse) [2] | Compound | growth inhibitory properties (HGF-stimulated proliferation) (SK-LMS-1 cells)
26.3 | 1.33 |  | GSWRFCGGEYSFQVCQDVAP (Synthetically generated cMet-binding peptide sequence) [SEQ ID NO: 365] | growth inhibitory properties
11.3 | 1.30 | NB | CC(=O)NCC(=O)N[C@@H](CC(=O)O)C(=O)N[C@@H](Cc1ccc(O)cc1)C(=O)N[C@@H](CO)C(=O)N[C@@H](CCC(=O)O)C(=O)N[C@H]1CSSC[C@@H](C(=O)N[C@@H](Cc2ccc(O)cc2)C(=O)N[C@@H](CC(=O)O)C(=O)N[C@@H](CCCNC(=N)N)C(=O)N[C@@H](CC(=O)O)C(=O)N2CCC[C@H]2C(=O)NCC(=O)NCC(=O)NCC(=O)N[C@@H](CCCCNC(=O)c2ccc3c(c2)C(=O)OC32c3ccc(O)cc3Oc3cc(O)ccc32)C(N)=O)NC(=O)[C@H](CCCCN)NC(=O)[C@H](C(C)C)NC(=O)[C@H](CCC(=O)O)NC(=O)[C@H](Cc2ccccc2)NC(=O)[C@H](CO)NC(=O)[C@H](CC(=O)O)NC(=O)[C@@H]2CCCN2C(=O)[C@H](CCC(=O)O)NC(=O)[C@H](Cc2ccccc2)NC(=O)[C@H](Cc2ccccc2)NC1=O [SEQ ID NO: 399] | 
